In PubChem BioAssay (NCI):
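Each compound was tested at five concentrations against cells in 96-well plates for 48 hours. GI50: concentration for 50% inhibition of growth. Definition used: TGI = concentration required for complete inhibition of growth.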

Experiments:
Experiment in all cases: inhibition of tumour cell growth, NCI panel, 48 h; in the data active = GI50 below about 0.43 µM; inactive = the rest
[1] = test system: NCI-H23 lung
[2] = test system: OVCAR-3 ovarian
[3] = test system: A498 renal
[4] = test system: SK-MEL-28 melanoma
[5] = test system: SR leukemia
[6] = test system: MOLT-4 leukemia
[7] = test system: OVCAR-8 ovarian
[8] = test system: SNB-19 CNS
[9] = test system: RPMI-8226 leukemia
[10] = test system: ACHN renal
[11] = test system: NCI-H522 lung
[12] = test system: M14 melanoma
[13] = test system: SN12C renal
[14] = test system: PC-3 prostate
[15] = test system: SW-620 colon
[16] = test system: K-562 leukemia
[17] = test system: SNB-75 CNS
[18] = test system: HCT-15 colon
[19] = test system: MDA-N
[20] = test system: CCRF-CEM leukemia
[21] = test system: COLO 205 colon
[22] = test system: HOP-92 NSCLC
[23] = test system: UO-31 renal
[24] = test system: SF-295 CNS
[25] = test system: LOX IMVI melanoma
[26] = test system: SF-268 CNS
[27] = test system: HOP-62 NSCLC
[28] = test system: MDA-MB-435
[29] = test system: NCI/ADR-RES ovarian
[30] = test system: SK-MEL-5 melanoma
[31] = test system: 786-0 renal
[32] = test system: MCF7 breast
[33] = test system: EKVX NSCLC
[34] = test system: KM12 colon
[35] = test system: TK-10 renal
[36] = test system: SK-OV-3 ovarian
[37] = test system: HS 578T breast
[38] = test system: OVCAR-5 ovarian
[39] = test system: MALME-3M melanoma
[40] = test system: IGROV1 ovarian
[41] = test system: HT29 colon
[42] = test system: OVCAR-4 ovarian
[43] = test system: SK-MEL-2 melanoma
[44] = test system: U251 CNS
[45] = test system: MDA-MB-231 breast
[46] = test system: NCI-H226 lung
[47] = test system: UACC-62 melanoma
[48] = test system: A549 NSCLC
[49] = test system: DU-145 prostate
[50] = test system: HCT-116 colon
[51] = test system: HCC-2998 colon
[52] = test system: RXF 393 renal
[53] = test system: HL-60(TB) leukemia
[54] = test system: UACC-257 melanoma
[55] = test system: NCI-H460 lung
[56] = test system: SF-539 CNS
[57] = test system: CAKI-1 renal
[58] = test system: T-47D breast
[59] = test system: BT-549 breast

O=C1/C(=C/c2ccco2)NC(=S)N1CN1CCCCC1
> 100 µM: TGI [1] | TGI [2] | TGI [3] | TGI [4] | TGI [5] | TGI [6] | TGI [7] | TGI [8] | TGI [9] | TGI [10] | TGI [11] | TGI [12] | TGI [13] | TGI [14] | TGI [15] | TGI [16] | TGI [17] | TGI [18] | TGI [19] | TGI [20] | TGI [21] | TGI [22] | TGI [23] | TGI [24] | TGI [25] | TGI [26] | TGI [27] | TGI [28] | TGI [29] | TGI [30] | TGI [31] | TGI [32] | TGI [33] | TGI [34] | TGI [35] | TGI [36] | TGI [37] | TGI [38] | TGI [39] | TGI [40] | TGI [41] | TGI [43] | TGI [44] | TGI [45] | TGI [46] | TGI [47] | TGI [48] | TGI [49] | TGI [50]
86 µM: TGI [42]

Nc1nc(Cl)cc(OCC2(CO)CC=CC2)n1
> 100 µM: TGI [1] | TGI [2] | TGI [3] | TGI [4] | TGI [5] | TGI [6] | TGI [7] | TGI [8] | TGI [9] | TGI [10] | TGI [11] | TGI [13] | TGI [14] | TGI [15] | TGI [16] | TGI [17] | TGI [18] | TGI [19] | TGI [20] | TGI [22] | TGI [24] | TGI [25] | TGI [26] | TGI [27] | TGI [28] | TGI [51] | TGI [29] | TGI [30] | TGI [31] | TGI [32] | TGI [33] | TGI [52] | TGI [53] | TGI [35] | TGI [54] | TGI [37] | TGI [55] | TGI [38] | TGI [39] | TGI [40] | TGI [41] | TGI [42] | TGI [44] | TGI [46] | TGI [48] | TGI [49] | TGI [56] | TGI [50]

NC(=S)N/N=C1\c2cc(Cl)ccc2-c2c1cc(Cl)cc2[N+](=O)[O-]
89.4 µM: TGI [52]
23.6 µM: TGI [6]
89.8 µM: TGI [43]
9.28 µM: TGI [30]
61.2 µM: TGI [41]
27.4 µM: TGI [50]
36.7 µM: TGI [59]
88.2 µM: TGI [56]
7.65 µM: TGI [58]
95.6 µM: TGI [33]
> 100 µM: TGI [1] | TGI [4] | TGI [5] | TGI [7] | TGI [8] | TGI [10] | TGI [12] | TGI [13] | TGI [14] | TGI [15] | TGI [16] | TGI [18] | TGI [20] | TGI [25] | TGI [26] | TGI [28] | TGI [51] | TGI [29] | TGI [35] | TGI [54] | TGI [36] | TGI [37] | TGI [38] | TGI [57] | TGI [40] | TGI [46] | TGI [47] | TGI [48] | TGI [49]
74.7 µM: TGI [27]
8.35 µM: TGI [42]
28.3 µM: TGI [17]
16.8 µM: TGI [32]
14.9 µM: TGI [44]
88.8 µM: TGI [34]
20.5 µM: TGI [9]
40.8 µM: TGI [2]
91.3 µM: TGI [31]
70.2 µM: TGI [23]
13.1 µM: TGI [22]
87.4 µM: TGI [39]
20.7 µM: TGI [55]
51.9 µM: TGI [53]
inactive: GI50 [1] 3.86 µM | GI50 [2] 4.66 µM | GI50 [3] 1.38 µM | GI50 [4] 3.83 µM | GI50 [5] 4.87 µM | GI50 [6] 3.21 µM | GI50 [7] 4.62 µM | GI50 [8] 4.24 µM | GI50 [9] 3.44 µM | GI50 [10] 4.81 µM | GI50 [11] 4.11 µM | GI50 [12] 3.27 µM | GI50 [13] 4.58 µM | GI50 [14] 3.21 µM | GI50 [15] 10.7 µM | GI50 [16] 4.76 µM | GI50 [17] 2.84 µM | GI50 [18] 4.33 µM | GI50 [20] 3.43 µM | GI50 [21] 3.84 µM | GI50 [22] 2.22 µM | GI50 [23] 4.81 µM | GI50 [24] 3.57 µM | GI50 [25] 9.35 µM | GI50 [26] 9.79 µM | GI50 [27] 7.12 µM | GI50 [28] 7.28 µM | GI50 [51] 12.1 µM | GI50 [29] 4.76 µM | GI50 [30] 2.77 µM | GI50 [31] 5.41 µM | GI50 [32] 1.98 µM | GI50 [33] 4.65 µM | GI50 [52] 10.4 µM | GI50 [34] 5.14 µM | GI50 [53] 6.15 µM | GI50 [35] 20.5 µM | GI50 [54] 6.56 µM | GI50 [36] 9.4 µM | GI50 [37] 18.8 µM | GI50 [55] 3.27 µM | GI50 [38] 11 µM | GI50 [57] 7.21 µM | GI50 [39] 9.26 µM | GI50 [40] 5.68 µM | GI50 [41] 10 µM | GI50 [42] 1.92 µM | GI50 [43] 7.96 µM | GI50 [58] 2.07 µM | GI50 [59] 3.41 µM | GI50 [44] 2.99 µM | GI50 [45] 3.85 µM | GI50 [46] 5.25 µM | GI50 [47] 3.16 µM | GI50 [48] 4.05 µM | GI50 [49] 10.8 µM | GI50 [56] 6.16 µM | GI50 [50] 2.89 µM
34.9 µM: TGI [45]
73.7 µM: TGI [24]
22.2 µM: TGI [21]
48.6 µM: TGI [11]
8.57 µM: TGI [3]
